Experimental data published in publication PMC11269185, “Glutamate acts on acid-sensing ion channels to worsen ischaemic brain injury” (Nature, 2024).
Values belong to the compound of their own block, whether it stands above or below them.

Tests used:
Type in all cases: binding
[1] = molecular target: T1, ASIC1a (acid-sensing ion channel 1a) (Homo sapiens, UniProt P78348); assay: microscale thermophoresis in cell lysate, pH […]; patch clamp (IC50 […] against glutamate potentiation); set-up: gene ASIC1; eGFP-tagged wild-type ASIC1a in HEK293T lysate
T1 sequence (P78348 1-528): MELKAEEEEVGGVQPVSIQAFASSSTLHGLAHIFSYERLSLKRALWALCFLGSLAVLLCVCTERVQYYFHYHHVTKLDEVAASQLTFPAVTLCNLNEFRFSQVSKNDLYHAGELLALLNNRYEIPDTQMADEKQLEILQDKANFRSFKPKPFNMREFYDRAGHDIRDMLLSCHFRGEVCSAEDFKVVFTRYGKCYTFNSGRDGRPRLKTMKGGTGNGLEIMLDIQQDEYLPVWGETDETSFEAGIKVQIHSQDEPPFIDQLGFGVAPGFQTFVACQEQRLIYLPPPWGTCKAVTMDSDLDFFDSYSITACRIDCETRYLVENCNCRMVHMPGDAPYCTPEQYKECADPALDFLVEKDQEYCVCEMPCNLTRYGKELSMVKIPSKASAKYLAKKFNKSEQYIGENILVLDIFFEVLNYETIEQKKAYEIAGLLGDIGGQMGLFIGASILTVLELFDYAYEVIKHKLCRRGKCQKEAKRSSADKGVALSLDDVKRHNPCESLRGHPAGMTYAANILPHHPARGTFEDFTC

[2] = molecular target: T1, ASIC1a (acid-sensing ion channel 1a); assay: microscale thermophoresis in cell lysate, pH […]; patch clamp; set-up: gene ASIC1; GFP-tagged ASIC1a in HEK293T lysate
[3] = molecular target: T1, ASIC1a (acid-sensing ion channel 1a); assay: microscale thermophoresis in cell lysate, pH […] ([…] at pH […]); patch clamp; set-up: gene ASIC1; GFP-tagged hASIC1a in lysates of transfected HEK293T cells

Kd [1]: 1100 ± 200 nM
SMILES: O=C(O)[C@@H]1C[C@H](CP(=O)(O)O)CCN1 [CGS19755]

Kd [2]: 1900 ± 400 nM
SMILES: O=C(O)C1CN(C(c2ccccc2)P(=O)(O)O)CCN1 (stereo not drawn) [LK-2]

SMILES: N[C@@H](CCC(=O)O)C(=O)O [glutamate]
Kd [3]: 113000 nM
